The values that follow come from ChEMBL document CHEMBL3882387, “Combination of selected analgesics and COX-II inhibitors” (2005).

Format in all cases: functional
Assay [1] has as its system Rattus norvegicus. Briefly: Analgesic activity in rat assessed as reduction in baking yeast suspension-induced hind paw oedema by measuring combination effect at 46.4 mg/kg, po co-administered with 215 mg/kg COX2 inhibitor celecoxib (celebrex) 1 hr prior to compound addition by Randall-selitto test relative to control. On the set-up: scale not given: the % may be the effect or the level left.

Assay [2] deals with Rattus norvegicus. Kind of assay: Analgesic activity in rat assessed as reduction in baking yeast suspension-induced hind paw oedema by measuring combination effect at 21.5 mg/kg, po co-administered with 215 mg/kg COX2 inhibitor celecoxib (celebrex) 1 hr prior to compound addition by Randall-selitto test relative to control. On the set-up: scale not given: the % may be the effect or the level left.

Assay [3] concerns Rattus norvegicus. Briefly: Analgesic activity in rat assessed as reduction in baking yeast suspension-induced hind paw oedema by measuring combination effect at 68.1 mg/kg, po coadministered with 215 mg/kg COX2 inhibitor celecoxib (celebrex) 1 hr prior to compound addition measured after 75 to 90 mins by Randall-selitto test relative to control. On the set-up: scale not given: the % may be the effect or the level left.

Assay [4] has as its system Rattus norvegicus. Kind of assay: Analgesic activity in rat assessed as reduction in baking yeast suspension-induced hind paw oedema by measuring combination effect at 68.1 mg/kg, po coadministered with 215 mg/kg COX2 inhibitor celecoxib (celebrex) 1 hr prior to compound addition measured after 15 to 75 mins by Randall-selitto test relative to control. On the set-up: scale not given: the % may be the effect or the level left.

Assay [5] concerns Rattus norvegicus. Briefly: Analgesic activity in rat assessed as reduction in baking yeast suspension-induced hind paw oedema at 215 mg/kg, po pretreated for 1 hr followed by 31 mg/kg (1R,2R)-3-(3-dimethylamino-l-ethyl-2-methyl-propyl)-phenol; hydrochloride addition by Randall-selitto test relative to control. On the set-up: scale not given: the % may be the effect or the level left.

In assay [6] the test system is Rattus norvegicus. Briefly: Analgesic activity in rat assessed as reduction in baking yeast suspension-induced hind paw oedema at 215 mg/kg, po pretreated for 1 hr followed by 68.1 mg/kg (1RS,3RS,6RS)-6-dimethylaminomethyl-1-(3-[methoxy-phenyl)-cyclohexane-1,3-diol;hydrochloride addition measured after 75 to 90 mins by Randall-selitto test relative to control. On the set-up: scale not given: the % may be the effect or the level left.

Assay [7] has as its system Rattus norvegicus. Briefly: Analgesic activity in rat assessed as reduction in baking yeast suspension-induced hind paw oedema at 215 mg/kg, po pretreated for 1 hr followed by 68.1 mg/kg (1RS,3RS,6RS)-6-dimethylaminomethyl-1-(3-[methoxy-phenyl)-cyclohexane-1,3-diol;hydrochloride addition measured after 15 to 75 mins by Randall-selitto test relative to control. On the set-up: scale not given: the % may be the effect or the level left.

The subject of assay [8] is Rattus norvegicus. Kind of assay: Analgesic activity in rat assessed as reduction in baking yeast suspension-induced hind paw oedema at 215 mg/kg, po pretreated for 1 hr followed by 46 mg/kg (1R,2R)-3-(3-dimethylamino-l-ethyl-2-methyl-propyl)-phenol; hydrochloride addition by Randall-selitto test relative to control. On the set-up: scale not given: the % may be the effect or the level left.

For assay [9], the system named is Rattus norvegicus. Briefly: Analgesic activity in rat assessed as reduction in baking yeast suspension-induced hind paw oedema at 215 mg/kg, po pretreated for 1 hr followed by 21.5 mg/kg (1S,2S)-3-(3-dimethylamino-l-ethyl-2-methyl-propyl)-phenol;hydrochloride addition by Randall-selitto test relative to control. On the set-up: scale not given: the % may be the effect or the level left.

In assay [10] the test system is Rattus norvegicus. Briefly: Analgesic activity in rat assessed as reduction in baking yeast suspension-induced hind paw oedema at 215 mg/kg, po pretreated for 1 hr followed by 46.4 mg/kg ((1R,2R)-3-(2-dimethylaminomethyl-cyclohexyl)-phenol;1 hydrochloride addition by Randall-selitto test relative to control. On the set-up: scale not given: the % may be the effect or the level left.

For assay [11], the system named is Rattus norvegicus. Kind of assay: Analgesic activity in rat assessed as reduction in baking yeast suspension-induced hind paw oedema at 215 mg/kg, po co-administered with 31 mg/kg (1R,2R)-3-(3-dimethylamino-l-ethyl-2-methyl-propyl)-phenol; hydrochloride by Randall-selitto test relative to control. On the set-up: scale not given: the % may be the effect or the level left.

Assay [12] has as its system Rattus norvegicus. Briefly: Analgesic activity in rat assessed as reduction in baking yeast suspension-induced hind paw oedema by measuring combination effect at 31 mg/kg, po co-administered with 215 mg/kg COX2 inhibitor celecoxib (celebrex) by Randall-selitto test relative to control. On the set-up: scale not given: the % may be the effect or the level left.
The test system of assay [13] is Rattus norvegicus. Briefly: Analgesic activity in rat assessed as reduction in baking yeast suspension-induced hind paw oedema at 31 mg/kg, po by measuring combination effect co-administered with 215 mg/kg COX2 inhibitor celecoxib by Randall-selitto test relative to control. On the set-up: scale not given: the % may be the effect or the level left.
The test system of assay [14] is Rattus norvegicus. Briefly: Analgesic activity in rat assessed as reduction in baking yeast suspension-induced hind paw oedema by measuring combination effect at 31 mg/kg, po coadministered with 215 mg/kg COX2 inhibitor rofecoxib (vioxx) 1 hr prior to compound addition by Randall-selitto test relative to control. On the set-up: scale not given: the % may be the effect or the level left.

Assay [15] concerns Rattus norvegicus. Kind of assay: Analgesic activity in po dosed rat assessed as reduction in acetic acid-induced writhings by measuring combination ED50 co-administered with COX2 inhibitor rofecoxib pretreated for 30 mins followed by acetic acid challenge measured after 10 to 35 mins by writhing test. For orientation: Writhing tests count abdominal constrictions after an irritant is injected.

The test system of assay [16] is Rattus norvegicus. Briefly: Analgesic activity in rat assessed as reduction in baking yeast suspension-induced hind paw oedema by measuring combination effect at 46 mg/kg, po coadministered with 215 mg/kg COX2 inhibitor rofecoxib (vioxx) 1 hr prior to compound addition by Randall-selitto test relative to control. On the set-up: scale not given: the % may be the effect or the level left.

For assay [17], the system named is Rattus norvegicus. Briefly: Analgesic activity in po dosed formalin-induced chronic pain rat model assessed as reduction in behavioural change by measuring combination ED50 co-administered with COX2 inhibitor celecoxib measured up to 60 mins by formalin test. The following applies: 1 h.
For assay [18], the system named is Rattus norvegicus. Briefly: Analgesic activity in rat assessed as reduction in baking yeast suspension-induced hind paw oedema at 31 mg/kg, po by measuring combination effect co-administered with 215 mg/kg COX2 inhibitor rofecoxib (vioxx) by Randall-selitto test relative to control. On the set-up: scale not given: the % may be the effect or the level left.
In assay [19] the test system is Rattus norvegicus. Briefly: Analgesic activity in rat assessed as reduction in baking yeast suspension-induced hind paw oedema by measuring combination effect at 46 mg/kg, po co-administered with 215 mg/kg COX2 inhibitor celecoxib (celebrex) by Randall-selitto test relative to control. On the set-up: scale not given: the % may be the effect or the level left.

Broadly, the ED50 is the dose at which the effect has come halfway, by size or by number of responders.

Molecules are shown by their SMILES.

On to `CN(C)C[C@@H]1CCCC[C@H]1c1cccc(O)c1.Cl`, for which the Activity with Rattus norvegicus [1] is 84.1%.

In the case of `CC[C@H](c1cccc(O)c1)[C@H](C)CN(C)C.Cl`, the Activity with Rattus norvegicus [2] was 96.4%.

Regarding `COc1cccc([C@@]2(O)C[C@H](O)CC[C@@H]2CN(C)C)c1.Cl` (racemic), the Activity with Rattus norvegicus [3] was 68.5%; with Rattus norvegicus [4], 109.3%.

Regarding `Cc1ccc(-c2cc(C(F)(F)F)nn2-c2ccc(S(N)(=O)=O)cc2)cc1` [CELECOXIB], the Activity in the assay with Rattus norvegicus [5] worked out at 17.3%; in the assay on Rattus norvegicus [6] it was 8%; in the assay on Rattus norvegicus [7], 16.7%; with Rattus norvegicus [8], 17.3%; in the assay on Rattus norvegicus [9], 8.9%; in the assay with Rattus norvegicus [10], 8.9%.

As to `CS(=O)(=O)c1ccc(C2=C(c3ccccc3)C(=O)OC2)cc1` [ROFECOXIB], the Activity was 13% in the assay on Rattus norvegicus [5], 13% in the assay with Rattus norvegicus [8] and 11.2% with Rattus norvegicus [11].

Regarding `CC[C@@H](c1cccc(O)c1)[C@@H](C)CN(C)C.Cl` [TAPENTADOL HYDROCHLORIDE], the Activity with Rattus norvegicus [12] is on record as 60.9%; in the assay with Rattus norvegicus [13], 29.6%; in the assay with Rattus norvegicus [14], 45.7%; in the assay with Rattus norvegicus [16], 59.8%; with Rattus norvegicus [18], 29.7%; with Rattus norvegicus [19] it was 86.1%. Also, the ED50 was 23.3 mg/kg in the assay on Rattus norvegicus [15] and 60.6 mg/kg in the assay with Rattus norvegicus [17].
